pIC50: −log10 of the molar value.
Assays:
Hepcidin (Homo sapiens) = biological target: T1, Hepcidin (Homo sapiens) (UniProt P81172); assay: Inhibition of human hepcidin-stimulated recombinant C-terminal Halo-tagged human FPN internalization in MDCK cells at 10 uM incubated for 15 to 20 mins by Halo-tagged TMR based fluorescence assay relative to control; type: cell-based
T1 sequence (whole entry): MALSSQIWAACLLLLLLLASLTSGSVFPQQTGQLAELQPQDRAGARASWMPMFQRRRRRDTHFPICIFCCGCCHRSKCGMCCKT

Ferroportin = Ferroportin (Homo sapiens, UniProt Q9NP59); assay: Inhibition of human hepcidin-stimulated recombinant C-terminal Halo-tagged human FPN internalization in MDCK cells incubated for 15 to 20 mins by Halo-tagged TMR based fluorescence assay; type: cell-based
Sequence of Ferroportin (Q9NP59 whole entry, looked up): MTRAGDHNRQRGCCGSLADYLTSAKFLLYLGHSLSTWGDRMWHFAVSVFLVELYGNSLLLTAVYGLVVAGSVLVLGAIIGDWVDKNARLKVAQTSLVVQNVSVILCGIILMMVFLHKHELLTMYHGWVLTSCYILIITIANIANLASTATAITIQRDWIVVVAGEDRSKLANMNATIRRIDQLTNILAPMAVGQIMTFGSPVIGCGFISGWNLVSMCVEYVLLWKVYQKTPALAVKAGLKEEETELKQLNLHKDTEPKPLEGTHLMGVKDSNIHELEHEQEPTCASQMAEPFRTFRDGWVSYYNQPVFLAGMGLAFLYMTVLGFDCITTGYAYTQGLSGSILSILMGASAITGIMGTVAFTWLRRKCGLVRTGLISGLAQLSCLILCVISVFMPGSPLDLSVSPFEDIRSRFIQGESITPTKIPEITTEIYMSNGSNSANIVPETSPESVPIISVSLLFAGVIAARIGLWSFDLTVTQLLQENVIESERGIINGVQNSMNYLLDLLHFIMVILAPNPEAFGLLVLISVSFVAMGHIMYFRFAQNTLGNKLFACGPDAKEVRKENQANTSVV

inhibition (Hepcidin (Homo sapiens)) [%]	pIC50 (Ferroportin)	Compound
	< 4.00	CC(C)N1CCN(C(CN2CCC(N3CCCCC3)CC2)c2ccccc2)CC1 (configuration not stated)
	< 4.00	O=C(C1CCCO1)N1CCN(CC(NCc2ccccc2)c2ccc(F)cc2)CC1 (configuration not stated)
	< 4.00	CCOC(=O)C1CCN(CC(c2ccccc2)N2CCN(CCOC)CC2)CC1 (configuration not stated)
	> 4.30	COCCN1CCN(C(CN2CCC(N3CCCCC3)CC2)c2ccc(OC)cc2)CC1 (configuration not stated)
	< 4.00	COc1ccc(CNC(CN2CCCCC2)c2ccccc2)cc1 (configuration not stated)
	< 4.00	c1ccc(C(CN2CCC(N3CCCCC3)CC2)N2CCN(CCn3ccnc3)CC2)cc1 (configuration not stated)
< 50		O=C(C1CCCO1)N1CCN(CC(NCc2ccccn2)c2ccc(F)cc2)CC1 (configuration not stated)
	> 4.30	COCCN1CCN(C(CN2CCC(N(C)C)CC2)c2ccccc2)CC1 (configuration not stated)
	> 4.00	COCCN1CCN(C(CN2CCC(N3CCCCC3)CC2)c2cccc(OC)c2)CC1 (configuration not stated)
	> 4.30	CCN(CC)C1CCN(CC(c2ccccc2)N2CCN(CCOC)CC2)CC1 (configuration not stated)
	< 4.00	CCOc1ccc(C(CN2CCC(N3CCCCC3)CC2)N2CCN(CCOC)CC2)cc1 (configuration not stated)
	< 4.00	COCCN1CCN(C(CN2CCC(NC(=O)c3ccccc3)CC2)c2ccccc2)CC1 (configuration not stated)
	> 4.30	c1ccc(C(CN2CCC(N3CCCCC3)CC2)N2CCN(CC3CCCO3)CC2)cc1 (configuration not stated)
	< 4.00	c1ccc(C(CN2CCN(c3cnccn3)CC2)NCc2ccccn2)cc1 (configuration not stated)
	< 4.30	Fc1ccc(C(CN2CCN(c3cnccn3)CC2)NCc2cccs2)cc1 (configuration not stated)
	> 4.30	CCOCCN1CCN(C(CN2CCC(N3CCCCC3)CC2)c2ccccc2)CC1 (configuration not stated)
	< 4.00	COCCN1CCN(C(CN2CCC(C3CCCCC3)CC2)c2ccccc2)CC1 (configuration not stated)
	< 4.00	COCCN1CCN(C(CN2CCC(N3CCCCC3)CC2)c2ccc(OC(C)C)cc2)CC1 (configuration not stated)
	< 4.00	COCCNC(CN1CCN(c2cnccn2)CC1)c1ccc(F)cc1 (configuration not stated)
	> 4.30	COCCN1CCN(C(CN2CCC(N3CCCCC3)CC2)c2ccc(C)cc2)CC1 (configuration not stated)
	< 4.00	O=C(C1CCCO1)N1CCN(C(CN2CCC(N3CCCCC3)CC2)c2ccccc2)CC1 (configuration not stated)
	< 4.00	Fc1ccccc1C(CN1CCN(c2cnccn2)CC1)NCc1ccccn1 (configuration not stated)
	< 4.00	c1ccc(C(CN2CCC(N3CCCCC3)CC2)N2CCN(c3cnccn3)CC2)cc1 (configuration not stated)
< 50		O=C(C1CCCO1)N1CCN(CC(NCc2ccccn2)c2ccccc2)CC1 (configuration not stated)
	> 4.30	COCCN1CCN(C(CN2CCC(N3CCCCC3)CC2)c2ccc(F)cc2)CC1 (configuration not stated)
	< 4.00	Fc1ccc(C(CN2CCN(c3ccccn3)CC2)NCc2ccccn2)cc1 (configuration not stated)
	> 4.00	COCCN1CCN(C(CN2CCC(NC(C)=O)CC2)c2ccccc2)CC1 (configuration not stated)
	> 4.30	COCCN1CCCN(C(CN2CCC(N3CCCCC3)CC2)c2ccccc2)CC1 (configuration not stated)

More lines, now with the values behind:

Compound	inhibition (Hepcidin (Homo sapiens)) [%]	pIC50 (Ferroportin)
Fc1ccc(C(CN2CCN(c3cnccn3)CC2)NCc2ccccn2)cc1 (configuration not stated)	> 50	> 4.30
COCCN1CCN(C(CN2CCC(C(=O)NC3CCCCC3)CC2)c2ccccc2)CC1 (configuration not stated)		< 4.00
c1ccc(CNC(CN2CCN(c3cnccn3)CC2)c2ccncc2)nc1 (configuration not stated)		< 4.00
COCCCN1CCN(C(CN2CCC(N3CCCCC3)CC2)c2ccccc2)CC1 (configuration not stated)		> 4.30
COc1ccccc1C(=O)N1CCN(CC(NCc2ccccn2)c2ccc(F)cc2)CC1 (configuration not stated)		> 4.30
COCCN1CCN(C(CN2CCOCC2)c2ccccc2)CC1 (configuration not stated)		< 4.00
COCCN1CCN(C(CN2CCC(Nc3ccccc3)CC2)c2ccccc2)CC1 (configuration not stated)		< 4.00
COCCN1CCN(C(CN2CCN(c3ccccc3)CC2)c2ccccc2)CC1 (configuration not stated)		< 4.00
Fc1ccc(C(CN2CCN(c3ccccc3)CC2)NCc2ccccn2)cc1 (configuration not stated)		< 4.00
COCCN1CCN(C(CN2CCC(N3CCCCC3)CC2)c2ccccc2)CC1 (configuration not stated)	> 50	> 4.30
COCCN1CCN(C(CN2CCC(N3CCCCC3)CC2)c2ccc(C(F)(F)F)cc2)CC1 (configuration not stated)		> 4.30
O=C(C1CCCO1)N1CCN(CC(NCc2ccccc2)c2ccccc2)CC1 (configuration not stated)		< 4.00
COc1ccc(CNC(CN2CCC(N3CCCCC3)CC2)c2ccccc2)cc1 (configuration not stated)	< 50	> 4.00
COCCN1CCN(C(CN2CCC(NC3CCCC3)CC2)c2ccccc2)CC1 (configuration not stated)		> 4.30
COCCN1CCN(C(CN2CCC(NC(=O)C3CCCCC3)CC2)c2ccccc2)CC1 (configuration not stated)		> 4.30
COCCN1CCN(C(CN2CCC(NC(=O)C(C)C)CC2)c2ccccc2)CC1 (configuration not stated)		> 4.00
c1ccc(C(CN2CCCCC2)NCCN2CCOCC2)cc1 (configuration not stated)		> 4.00
COCCN1CCN(C(CN2CCCCC2)c2ccccc2)CC1 (configuration not stated)		> 4.00
COCCN1CCN(C(CN2CCC(N3CCCCC3)CC2)c2ccccc2Cl)CC1 (configuration not stated)		< 4.00
COCCN1CCN(C(CN2CCC(N3CCCCC3)CC2)c2ccc(C#N)cc2)CC1 (configuration not stated)		> 4.30
Fc1ccc(C(CN2CCN(c3cnccn3)CC2)NCc2ccccc2)cc1 (configuration not stated)		< 4.30
COCCC1CCN(C(CN2CCC(N3CCCCC3)CC2)c2ccccc2)CC1 (configuration not stated)		< 4.00
NC(CN1CCN(C(=O)C2CCCO2)CC1)c1ccc(F)cc1 (configuration not stated)		< 4.00

Compound	inhibition (Hepcidin (Homo sapiens)) [%]	pIC50 (Ferroportin)
COCCN1CCN(C(CN2CCC(N3CCN(C)CC3)CC2)c2ccccc2)CC1 (configuration not stated)		< 4.00
O=S(=O)(c1ccccc1)N1CCN(CC(NCc2ccccn2)c2ccc(F)cc2)CC1 (configuration not stated)		< 4.00
NC(CN1CCN(c2cnccn2)CC1)c1ccc(F)cc1 (configuration not stated)		< 4.00
COCCN1CCN(C(CN2CCC(C(=O)Nc3ccccc3)CC2)c2ccccc2)CC1 (configuration not stated)		> 4.00
c1ccc(C(CN2CCC(N3CCCCC3)CC2)NCCN2CCOCC2)cc1 (configuration not stated)	< 50	> 4.00
O=C(C1CCCO1)N1CCN(CC(NCc2cccs2)c2ccc(F)cc2)CC1 (configuration not stated)		< 4.00
COCCN1CCN(C(CN2CCC(N3CCCCC3)CC2)c2ccc(Cl)cc2)CC1 (configuration not stated)		< 4.00
COCCN1CCN(C(CN2CCC(N3CCCCC3)CC2)c2cccc(Cl)c2)CC1 (configuration not stated)		< 4.00
Clc1ccc(C(CN2CCN(c3cnccn3)CC2)NCc2ccccn2)cc1 (configuration not stated)		< 4.00
COCCN1CCN(C(CN2CCC(N3CCCC3)CC2)c2ccccc2)CC1 (configuration not stated)		> 4.30
c1ccc(C(CN2CCC(N3CCCCC3)CC2)N2CCN(c3ccccn3)CC2)cc1 (configuration not stated)		< 4.00
c1ccc(C(CN2CCC(N3CCCCC3)CC2)N2CCN(C3CCCC3)CC2)cc1 (configuration not stated)		< 4.00
O=C(c1ccccn1)N1CCN(CC(NCc2ccccn2)c2ccc(F)cc2)CC1 (configuration not stated)		< 4.00
CCN(CC)CCN1CCN(C(CN2CCC(N3CCCCC3)CC2)c2ccccc2)CC1 (configuration not stated)		< 4.00
CN(CCN(C)c1cnccn1)CC(NCc1ccccn1)c1ccc(F)cc1 (configuration not stated)		> 4.30
COCCN1CCN(C(CN2CCC(N3CCOCC3)CC2)c2ccccc2)CC1 (configuration not stated)		> 4.30
CCCCN1CCN(C(CN2CCC(N3CCCCC3)CC2)c2ccccc2)CC1 (configuration not stated)		< 4.00
Fc1cccc(C(CN2CCN(c3cnccn3)CC2)NCc2ccccn2)c1 (configuration not stated)		< 4.00
CNC(=O)C1CCN(CC(c2ccccc2)N2CCN(CCOC)CC2)CC1 (configuration not stated)		> 4.00
COCCN1CCN(C(CN2CCC(N3CCC(C)CC3)CC2)c2ccccc2)CC1 (configuration not stated)		> 4.00
CC(=O)N1CCN(CC(NCc2ccccn2)c2ccc(F)cc2)CC1 (configuration not stated)		< 4.00
COCCNC(CN1CCN(C(=O)C2CCCO2)CC1)c1ccc(F)cc1 (configuration not stated)		< 4.00

— ChEMBL document CHEMBL4418271, “Novel Ethanediamone Hepcidine Antagonists” (2012)
